The structures appear in SMILES notation.

T1 sequence (Q96GG9 whole entry): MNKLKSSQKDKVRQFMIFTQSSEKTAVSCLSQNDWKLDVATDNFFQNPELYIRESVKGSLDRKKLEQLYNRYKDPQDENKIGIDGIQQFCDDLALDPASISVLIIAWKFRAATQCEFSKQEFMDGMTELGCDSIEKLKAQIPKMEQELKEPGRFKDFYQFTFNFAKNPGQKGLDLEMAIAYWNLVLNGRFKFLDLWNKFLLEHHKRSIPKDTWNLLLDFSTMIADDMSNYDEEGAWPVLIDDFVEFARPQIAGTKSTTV

The first test addresses T1, DCN1 (Homo sapiens (Human), UniProt Q96GG9). The experiment in a line: TR-FRET binding assay (biotin-DCN1 / Ac-UBE2M12-AlexaFluor488). The settings on record: mean ± SD (n); read-out: DCN1_TRFRET Mean EC50. A digest of the protocol:
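Biotinylated DCN1 binding to Ac-UBE2M12-AlexaFluor488 read by TR-FRET; assay cocktail pre-incubated 1 h at room temperature before compounds added from DMSO stocks by pin transfer. IC50 is the mean of three replicates ± SD; compounds tested in triplicate or more.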
For orientation: In TR-FRET formats the signal depends on donor and acceptor labels being close together.
Consider `CCN1C(=O)[C@@H](N(CC)C(=O)c2cccc(C)c2)[C@@H](c2ccc(F)cc2)c2c(C)nn(-c3ccccc3)c21` [RG-0009505, N-ethyl-N-[(4S,5S)-7-ethyl-4-(4-fluorophenyl)-3-methyl-6-oxo-1-phenyl-1H,4H,5H,6H,7H-pyrazolo[3,4-b]pyridin-5-yl]-3-methylbenzamide], for which the EC50 (as a rule, the concentration at which the effect is half-maximal) came to 2.62 ± 0.404 µM.

For `Cc1nn(-c2ccccc2)c2c1[C@H](c1ccc(F)cc1)[C@H](N(C)C(=O)c1cccc(C(F)(F)F)c1)C(=O)N2C` [RG-0008886, N-[(4S,5S)-4-(4-fluorophenyl)-3,7-dimethyl-6-oxo-1-phenyl-1H,4H,5H,6H,7H-pyrazolo[3,4-b]pyridin-5-yl]-N-methyl-3-(trifluoromethyl)benzamide], the EC50 was above 36.5 µM.

Consider `CCN1C(=O)[C@@H](NC(=O)c2cccc(C(F)(F)F)c2)[C@@H](c2cc(C)cs2)c2c(C)nn(-c3ccccc3)c21` [RG-0013987, N-[(4S,5S)-7-ethyl-3-methyl-4-(4-methylthiophen-2-yl)-6-oxo-1-phenyl-1H,4H,5H,6H,7H-pyrazolo[3,4-b]pyridin-5-yl]-3-(trifluoromethyl)benzamide], for which the EC50 is 3.1 ± 0.559 µM. For `C=CC(=O)NCc1nn(-c2ccccc2)c2c1[C@H](c1ccc(F)cc1)[C@H](NC(=O)c1cccc(C)c1)C(=O)N2CC` [RG-0013063, N-[(4S,5S)-7-ethyl-4-(4-fluorophenyl)-6-oxo-1-phenyl-3-[(prop-2-enamido)methyl]-1H,4H,5H,6H,7H-pyrazolo[3,4-b]pyridin-5-yl]-3-methylbenzamide], the EC50 was 0.0968 ± 0.00721 µM. As to `CC(=O)CN1C(=O)[C@@H](NC(=O)c2cccc(C)c2)[C@@H](c2ccc(F)cc2)c2c(C)nn(-c3ccccc3)c21` [RG-0009508, N-[(4S,5S)-4-(4-fluorophenyl)-3-methyl-6-oxo-7-(2-oxopropyl)-1-phenyl-1H,4H,5H,6H,7H-pyrazolo[3,4-b]pyridin-5-yl]-3-methylbenzamide], the EC50 came out at 7.05 ± 1.67 µM. Regarding `Cc1cccc(C(=O)N[C@@H]2C(=O)N(C)c3c(c(C)nn3C(C)(C)C)[C@@H]2c2ccc(F)cc2)c1` [RG-0007412, N-[(4S,5S)-1-tert-butyl-4-(4-fluorophenyl)-3,7-dimethyl-6-oxo-1H,4H,5H,6H,7H-pyrazolo[3,4-b]pyridin-5-yl]-3-methylbenzamide], the EC50 amounted to 2.34 ± 0.745 µM.

With `CCN1C(=O)[C@@H](NC(=O)c2cccc(C(F)(F)F)c2)[C@@H](c2ccc(F)cc2)c2c(CNC)nn(-c3ccccc3)c21` [RG-0014056, N-[(4S,5S)-7-ethyl-4-(4-fluorophenyl)-3-[(methylamino)methyl]-6-oxo-1-phenyl-1H,4H,5H,6H,7H-pyrazolo[3,4-b]pyridin-5-yl]-3-(trifluoromethyl)benzamide], the EC50 turned out to be 0.118 ± 0.00903 µM.

The next test has as its target T1, DCN1.
Experiment: not given
As to conditions: class symbols H, M, M-L, legend not given; cited from earlier work.
As to `COc1ccc([C@@H]2c3c(C)nn(C)c3NC(=O)[C@H]2NC(=O)c2cccc(C)c2)cc1F` (racemic) [SJ000398158], the “Pulse-Chase inh @ 30 uM” value was “M-L”. On to `Cc1nn(C)c2c1[C@@H](c1ccc(F)c(F)c1)[C@H](NC(=O)c1ccc(Cl)cc1)C(=O)N2` (racemic) [SJ000399589], for which the “Pulse-Chase inh @ 30 uM” value is given as “M-L”.
